This assay in a line: Antiandrogenic activity assessed as inhibition of testosterone 5alpha reductase at 100 ug/mL. More on the design: scale not given: the % may be the effect or the level left.

For the molecule `C/C(=C\C(O)C(O)C(C)(C)O)[C@H]1CC[C@]2(C)[C@@H]1C[C@@H](O)[C@@H]1[C@]34CC[C@](O)(OC3)C(C)(C)[C@@H]4CC[C@]12C` (stereo not given in full), the Activity is -2.09%.
To `COC(C)(C)C(O)C(O)/C=C(\C)[C@H]1CC[C@]2(C)[C@@H]1C[C@@H](O)[C@@H]1[C@]34CC[C@](O)(OC3)C(C)(C)[C@@H]4CC[C@]12C` (stereo not given in full) belongs 19%; to `C/C(=C\C(O)C1OC1(C)C)[C@H]1CC[C@]2(C)[C@@H]1C[C@@H](O)[C@@H]1[C@]34CC[C@](O)(OC3)C(C)(C)[C@@H]4CC[C@]12C` (stereo not given in full), 15.1%; to `C/C(=C\C(O)C1OC1(C)C)[C@H]1CC[C@]2(C)[C@@H]1C[C@@H](O)[C@@H]1[C@@]3(C)CCC(=O)C(C)(C)[C@@H]3CC[C@]12C` (stereo not given in full), 43.1%.
For `C=C(C)C(O)C(O)/C=C(\C)[C@H]1CC[C@]2(C)[C@@H]1C[C@@H](O)[C@@H]1[C@]34CC[C@](O)(OC3)C(C)(C)[C@@H]4CC[C@]12C` (stereo not given in full), the Activity came out at 18%.

Values taken from ChEMBL document CHEMBL1147228, “Dammarane-type triterpenes from the Brazilian medicinal plant Cordia multispicata” (J Nat Prod, 2003).
